{
  "source": "patent US10526502B2",
  "about": "“Container coating system” (SWIMC LLC, priority 2012, dated 2020)",
  "data": [
    {"test_system": "MCF-7, clone WS8, cells", "test": "MCF-7 cell proliferation assay of estrogenic activity", "format": "cell-based, human", "details": "logarithmic (base 10) Relative Proliferative Effect vs 17-beta estradiol; values 'expected or measured'", "excerpt": "The MCF-7 assay is a useful test for assessing whether a polyhydric phenol compound is appreciably non-estrogenic. The MCF-7 assay uses MCF-7, clone WS8, cells to measure whether and to what extent a substance induces cell proliferation via estrogen receptor (ER)-mediated pathways. The method is described in “Test Method Nomination: MCF-7 Cell Proliferation Assay of Estrogenic Activity” submitted for validation by CertiChem, Inc. to the National Toxicology Program Interagency Center for the Evaluation of Alternative Toxicological Methods (NICEATM) on Jan. 19, 2006 (available online at iccvam.niehs.nih.gov/methods/endocrine/endodocs/SubmDoc.pdf).\nA brief summary of the method of the aforementioned MCF-7 assay is provided below. MCF-7, clone WS8, cells are maintained at 37° C. in RMPI (Roswell Park Memorial Institute medium) containing Phenol Red (e.g., GIBCO Catalog Number 11875119) and supplemented with the indicated additives for routine culture. An aliquot of cells maintained at 37° C. are grown for two days in phenol-free media containing 5% charcoal stripped fetal bovine serum in a 25 cm^2 tissue culture flask. Using a robotic dispenser such as an EPMOTION™ 5070 unit from Eppendorf AG, MCF-7 cells are then seeded at 400 cells per well in 0.2 ml of hormone-free culture medium in CORNING™ 96-well plates from Corning Life Sciences. The cells are adapted for 3 days in the hormone-free culture medium prior to adding the chemical to be assayed for estrogenic activity. The media containing the test chemical is replaced daily for 6 days. At the end of the 7 day exposure to the test chemical, the media is removed, the wells are washed once with 0.2 ml of HBSS (Hanks' Balanced Salt Solution), and then assayed to quantify amounts of DNA per well using a micro-plate modification of the Burton diphenylamine (DPA) assay, which is used to calculate the level of cell proliferation. […]\nTable I shown below includes exemplary preferred polyhydric phenol compounds of Formula II and their expected or measured logarithmic RPE values in the MCF-7 assay.", "values": [
      {"smiles": "Oc1ccc(Cc2ccc(O)cc2)cc1", "note": "[Bisphenol F]", "Log RPE": "−2"},
      {"smiles": "C[C@]12CC[C@@H]3c4ccc(O)cc4CC[C@H]3[C@@H]1CC[C@@H]2O", "note": "[17β-estradiol]", "Log RPE": 2.00},
      {"smiles": "O=S(=O)(c1ccc(O)cc1)c1ccc(O)cc1", "note": "[Bisphenol S]", "Log RPE": "−2"}
    ]},
    {"target": "T1, human estrogen receptor (Homo sapiens, UniProt P03372)", "T1 sequence (P03372 1-595)": "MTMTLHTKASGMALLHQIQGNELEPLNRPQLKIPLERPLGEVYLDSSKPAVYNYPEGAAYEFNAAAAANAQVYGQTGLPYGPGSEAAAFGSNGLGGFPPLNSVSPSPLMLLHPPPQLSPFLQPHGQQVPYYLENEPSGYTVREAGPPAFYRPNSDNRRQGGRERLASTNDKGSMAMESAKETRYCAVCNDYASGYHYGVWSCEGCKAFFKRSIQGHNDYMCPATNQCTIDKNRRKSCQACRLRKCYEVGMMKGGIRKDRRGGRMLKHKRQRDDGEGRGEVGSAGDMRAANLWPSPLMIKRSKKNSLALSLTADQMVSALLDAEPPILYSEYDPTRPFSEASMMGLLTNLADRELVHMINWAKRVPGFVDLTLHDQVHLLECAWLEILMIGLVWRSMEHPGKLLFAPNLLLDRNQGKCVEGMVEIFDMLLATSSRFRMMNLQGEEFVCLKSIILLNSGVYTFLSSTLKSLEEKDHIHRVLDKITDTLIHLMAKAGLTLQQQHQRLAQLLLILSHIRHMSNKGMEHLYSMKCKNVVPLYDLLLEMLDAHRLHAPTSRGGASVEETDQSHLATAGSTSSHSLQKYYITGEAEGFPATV", "test": "suitable in vitro assay whose results are directly correlated to the MCF-7 assay", "details": "in vitro assay correlated to MCF-7 through common reference compounds", "values": [
      {"smiles": "Cc1cc(Cc2cc(C)c(O)c(C)c2)cc(C)c1O", "note": "[Structure 6, 4,4′-methylenebis(2,6-dimethylphenol)]", "estrogenic activity": "do not exhibit appreciable estrogenic activity"},
      {"smiles": "CCCC(c1cc(C(C)(C)C)c(O)cc1C)c1cc(C(C)(C)C)c(O)cc1C", "note": "[Structure 7, 4,4′-butylidenebis(2-t-butyl-5-methylphenol)]", "estrogenic activity": "do not exhibit appreciable estrogenic activity"},
      {"smiles": "CC(C)(C)c1cc(Cc2cc(C(C)(C)C)c(O)c(C(C)(C)C)c2)cc(C(C)(C)C)c1O", "note": "[Structure 8, 4,4′-methylenebis(2,6-di-t-butylphenol)]", "estrogenic activity": "do not exhibit appreciable estrogenic activity"},
      {"smiles": "CC(C)(C)c1cc(O)c(C(C)(C)C)cc1O", "note": "[Structure 12, 2,5-di-t-butylhydroquinone]", "estrogenic activity": "do not exhibit appreciable estrogenic activity"},
      {"smiles": "Cc1cc(Cc2cc(C)cc(C(C)(C)C)c2O)c(O)c(C(C)(C)C)c1", "note": "[Structure 9]", "estrogenic activity": "do not exhibit appreciable estrogenic activity"}
    ]},
    {"test_system": "not listed separately", "test": "suitable genotoxicity assays (e.g., Ames II assay)", "format": "cell-based", "details": "not given", "procedure": "A solution of 4,4′-methylenebis(2,6-di-t-butylphenol) (500 grams, 1.076 moles obtained from Albemarle Corporation) in anhydrous dimethylformamide (1.5 liters) was cooled to −10° C. and a solution of sodium tert-pentoxide (374 grams, 3.23 moles) in anhydrous dimethylformamide (1.5 liters) was added dropwise at −10 to −5° C. The mixture was stirred for 30 minutes at −10° C. Epichlorohydrin (1.9 liters, 24.2 moles) was added via dropping funnel at −10 to −5° C. The solution was allowed to warm up to room temperature and then was heated for 16 hours at a temperature of from 75 to 82° C. After cooling down to ambient temperature, the mixture was added to cold tap water (12 liters). Ethyl acetate (5 liters) was added to the mixture, which was stirred for 10 minutes and separated. The aqueous layer was extracted again with additional ethyl acetate (3 liters). The combined ethyl acetate extracts were washed twice with brine (2×6 liters), dried over anhydrous sodium sulfate (600 grams), and filtered. The solvent was removed under reduced pressure to give 887 grams of crude product as a purple oil. The crude product was dissolved in toluene (600 milliliters) and passed over a silica gel pad (1.4 kilograms), and eluted with a mixture of toluene and heptane (8 parts toluene to 2 parts heptane). The fractions containing product were combined and evaporated under reduced pressure. […]", "values": [
      {"smiles": "CCCC(c1cc(C(C)(C)C)c(OCC2CO2)cc1C)c1cc(C(C)(C)C)c(OCC2CO2)cc1C", "note": "(stereo not shown) [Diglycidyl ether of 4,4′Butylidenebis(2-t-butyl-5-methylphenol))]", "genotoxicity": "non-genotoxic"},
      {"smiles": "CC(C)(C)c1cc(Cc2cc(C(C)(C)C)c(OCC3CO3)c(C(C)(C)C)c2)cc(C(C)(C)C)c1OCC1CO1", "note": "(stereo not shown) [Diglycidyl ether of 4,4′-methylenebis(2,6-di-tert-butylphenol)]", "genotoxicity": "non-genotoxic"}
    ]}
  ]
}
